Laboratory results: the supplement of paper PMC10307832

How the values were obtained:
Assay in all cases: relative viability (nuclei count vs DMSO), 5 days (fraction); higher = more cells survive
[1] = compound: COc1cc2nc(N3CCCN(C)CC3)nc(NC3CCN(Cc4ccccc4)CC3)c2cc1OC + CC(=O)c1c(C)c2cnc(Nc3ccc(N4CCNCC4)cn3)nc2n(C2CCCC2)c1=O [Palbociclib] (partner 0.5 µM)
Summary of the method: (§1)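 Five library-drug doses in √10 steps were combined with a fixed anchor-drug dose, or a single drug was given alone, by pin tool to lung cancer cell lines in 1536-well plates the day after seeding. Nuclei were stained and counted after 5 days. Relative viability is the nuclei count in treated wells over that in vehicle wells, taken as the median of duplicate plates.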

[2] = compound: Cc1cc([C@@H](C)Nc2ccccc2C(=O)O)c2nc(N3CCOCC3)cc(=O)n2c1 [AZD6482] + CC(=O)Nc1cccc(-n2c(=O)n(C3CC3)c(=O)c3c(Nc4ccc(I)cc4F)n(C)c(=O)c(C)c32)c1 [Trametinib] (partner 0.02 µM)
Summary of the method: as §1

[3] = compound: Cc1cc([C@@H](C)Nc2ccccc2C(=O)O)c2nc(N3CCOCC3)cc(=O)n2c1 [AZD6482] + CC(=O)c1c(C)c2cnc(Nc3ccc(N4CCNCC4)cn3)nc2n(C2CCCC2)c1=O [Palbociclib] (partner 0.5 µM)
Summary of the method: as §1

[4] = compound: Cc1cc([C@@H](C)Nc2ccccc2C(=O)O)c2nc(N3CCOCC3)cc(=O)n2c1 [AZD6482] + CS(=O)(=O)N1CCN(Cc2cc3nc(-c4cccc5[nH]ncc45)nc(N4CCOCC4)c3s2)CC1 [Pictilisib] (partner 1 µM)
Summary of the method: as §1

Row | Cell Line | relative viability ([1]; first compound 0.2 µM) | relative viability ([1]; first compound 0.6325 µM) | relative viability ([1]; first compound 2 µM) | relative viability ([1]; first compound 6.325 µM) | relative viability ([2]; first compound 0.08 µM) | relative viability ([2]; first compound 0.253 µM) | relative viability ([2]; first compound 0.8 µM) | relative viability ([2]; first compound 2.53 µM) | relative viability ([2]; first compound 8 µM) | relative viability ([3]; first compound 0.08 µM) | relative viability ([3]; first compound 0.253 µM) | relative viability ([3]; first compound 0.8 µM) | relative viability ([3]; first compound 2.53 µM) | relative viability ([3]; first compound 8 µM) | relative viability ([4]; first compound 0.08 µM) | relative viability ([4]; first compound 0.253 µM) | relative viability ([4]; first compound 0.8 µM) | relative viability ([4]; first compound 2.53 µM) | relative viability ([4]; first compound 8 µM)
1 | 201T | 0.375 | 0.361 | 0.354 | 0.365 | 0.694 | 0.698 | 0.704 | 0.653 | 0.708 | 0.351 | 0.354 | 0.309 | 0.326 | 0.347 | 0.612 | 0.672 | 0.66 | 0.506 | 0.619
2 | A549 | – | – | – | – | – | – | – | – | – | – | – | – | – | – | 0.522 | 0.472 | 0.523 | 0.264 | 0.386
3 | A-427 | 0.533 | 0.503 | 0.521 | 0.485 | 0.628 | 0.783 | 0.691 | 0.548 | 0.612 | 0.462 | 0.528 | 0.495 | 0.502 | 0.553 | 0.655 | 0.697 | 0.735 | 0.601 | 0.682
4 | ABC-1 | 0.718 | 0.682 | 0.754 | 0.6 | – | – | – | – | – | 0.603 | 0.79 | 0.664 | 0.662 | 0.544 | 0.789 | 0.623 | 0.773 | 0.686 | 0.736
5 | BEN | 0.437 | 0.471 | 0.473 | 0.476 | 0.898 | 0.947 | 1.02 | 0.866 | 0.817 | 0.442 | 0.452 | 0.446 | 0.449 | 0.466 | 0.607 | 0.506 | 0.655 | 0.434 | 0.557
6 | CAL-12T | 0.4 | 0.55 | 0.482 | 0.46 | 0.308 | 0.276 | 0.234 | 0.185 | 0.302 | 0.416 | 0.314 | 0.343 | 0.518 | 0.286 | 0.395 | – | 0.571 | 0.291 | 0.432
7 | COR-L23 | 0.34 | 0.266 | 0.362 | 0.265 | 0.553 | 0.598 | 0.652 | 0.403 | 0.521 | 0.223 | 0.28 | 0.305 | 0.338 | 0.224 | 0.424 | 0.642 | 0.765 | 0.534 | 0.748
8 | COR-L 105 | 0.375 | 0.398 | 0.364 | 0.396 | 0.378 | 0.451 | 0.46 | 0.383 | 0.423 | 0.419 | 0.434 | 0.434 | 0.492 | 0.376 | 0.362 | 0.388 | 0.428 | 0.265 | 0.309
9 | Calu-6 | – | – | – | – | – | – | – | – | – | – | – | – | – | – | 0.823 | 0.85 | 0.846 | 0.673 | 0.937
10 | ChaGo-K-1 | 0.883 | 0.979 | 0.933 | 0.902 | 0.922 | 0.874 | 0.878 | 0.803 | 0.857 | 0.948 | 0.901 | 0.926 | 0.919 | 0.934 | 0.765 | – | 1.15 | 1.01 | 0.977
11 | EBC-1 | – | – | – | – | – | – | – | – | – | – | – | – | – | – | 0.314 | 0.295 | 0.209 | 0.197 | 0.292
12 | EKVX | 0.407 | 0.412 | 0.395 | 0.301 | 0.293 | 0.291 | 0.286 | 0.242 | 0.203 | 0.283 | 0.325 | 0.342 | 0.279 | 0.298 | 0.378 | 0.326 | 0.441 | 0.235 | 0.467
13 | EMC-BAC-2 | 0.525 | 0.472 | 0.517 | 0.546 | 0.841 | 0.956 | 0.893 | 0.667 | 0.706 | 0.494 | 0.491 | 0.518 | 0.46 | 0.429 | 0.487 | 0.51 | 0.505 | 0.374 | 0.555
14 | EPLC-272H | 0.326 | 0.322 | 0.316 | 0.346 | 0.251 | 0.213 | 0.27 | 0.234 | 0.194 | 0.297 | 0.292 | 0.328 | 0.332 | 0.244 | 0.325 | – | 0.297 | 0.287 | 0.333
15 | H3255 | 0.312 | 0.316 | 0.327 | 0.3 | 0.604 | 0.551 | 0.575 | 0.402 | 0.367 | 0.324 | 0.33 | 0.306 | 0.339 | 0.339 | 0.461 | 0.434 | 0.453 | 0.305 | 0.47
16 | HARA | 0.21 | 0.312 | 0.252 | 0.278 | 0.538 | 0.496 | 0.453 | 0.336 | 0.352 | 0.182 | 0.199 | 0.368 | 0.247 | 0.171 | 0.254 | 0.395 | 0.423 | – | 0.59
